From PubChem BioAssay (NCI)
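A five-concentration, 48-hour dose response in 96-well plates underlies each endpoint, interpolated linearly between surrounding concentrations. TGI: total growth inhibition.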

Legend:
Assay in all cases: DTP human tumour cell line panel, 48 h
786-0 renal = test system: 786-0 renal
A498 renal = test system: A498 renal
A549 NSCLC = test system: A549 NSCLC
ACHN renal = test system: ACHN renal
CAKI-1 renal = test system: CAKI-1 renal
CCRF-CEM leukemia = test system: CCRF-CEM leukemia
COLO 205 colon = test system: COLO 205 colon
DLD-1 colon = test system: DLD-1 colon
DMS 114 small cell lung = test system: DMS 114 small cell lung
DMS 273 small cell lung = test system: DMS 273 small cell lung
HCC-2998 colon = test system: HCC-2998 colon
HCT-116 colon = test system: HCT-116 colon
HCT-15 colon = test system: HCT-15 colon
HL-60(TB) leukemia = test system: HL-60(TB) leukemia
HOP-62 NSCLC = test system: HOP-62 NSCLC
HOP-92 NSCLC = test system: HOP-92 NSCLC
HT29 colon = test system: HT29 colon
IGROV1 ovarian = test system: IGROV1 ovarian
K-562 leukemia = test system: K-562 leukemia
KM12 colon = test system: KM12 colon
KM20L2 colon = test system: KM20L2 colon
LOX IMVI melanoma = test system: LOX IMVI melanoma
LXFL 529 NSCLC = test system: LXFL 529 NSCLC
M14 melanoma = test system: M14 melanoma
M19-MEL melanoma = test system: M19-MEL melanoma
MALME-3M melanoma = test system: MALME-3M melanoma
MOLT-4 leukemia = test system: MOLT-4 leukemia
NCI-H226 lung = test system: NCI-H226 lung
NCI-H23 lung = test system: NCI-H23 lung
NCI-H460 lung = test system: NCI-H460 lung
NCI-H522 lung = test system: NCI-H522 lung
OVCAR-4 ovarian = test system: OVCAR-4 ovarian
OVCAR-5 ovarian = test system: OVCAR-5 ovarian
RPMI-8226 leukemia = test system: RPMI-8226 leukemia
RXF 393 renal = test system: RXF 393 renal
SF-268 CNS = test system: SF-268 CNS
SF-295 CNS = test system: SF-295 CNS
SF-539 CNS = test system: SF-539 CNS
SK-MEL-2 melanoma = test system: SK-MEL-2 melanoma
SK-MEL-28 melanoma = test system: SK-MEL-28 melanoma
SK-MEL-5 melanoma = test system: SK-MEL-5 melanoma
SK-OV-3 ovarian = test system: SK-OV-3 ovarian
SN12C renal = test system: SN12C renal
SNB-19 CNS = test system: SNB-19 CNS
SNB-75 CNS = test system: SNB-75 CNS
SNB-78 CNS = test system: SNB-78 CNS
SR leukemia = test system: SR leukemia
SW-620 colon = test system: SW-620 colon
TK-10 renal = test system: TK-10 renal
U251 CNS = test system: U251 CNS
UACC-257 melanoma = test system: UACC-257 melanoma
UACC-62 melanoma = test system: UACC-62 melanoma
UO-31 renal = test system: UO-31 renal

Measured: TGI

COC(=O)c1nn(C(=N)c2ccc(Cl)cc2)c2c1CCCCC2
> 100 µM: 786-0 renal | A498 renal | A549 NSCLC | ACHN renal | CAKI-1 renal | CCRF-CEM leukemia | COLO 205 colon | DLD-1 colon | DMS 114 small cell lung | DMS 273 small cell lung | HCC-2998 colon | HCT-116 colon | HCT-15 colon | HL-60(TB) leukemia | HOP-62 NSCLC | HOP-92 NSCLC | HT29 colon | IGROV1 ovarian | K-562 leukemia | KM12 colon | KM20L2 colon | LOX IMVI melanoma | LXFL 529 NSCLC | M14 melanoma | M19-MEL melanoma | MALME-3M melanoma | MOLT-4 leukemia | NCI-H226 lung | NCI-H23 lung | NCI-H460 lung | NCI-H522 lung | OVCAR-4 ovarian | OVCAR-5 ovarian | RPMI-8226 leukemia | RXF 393 renal | SF-268 CNS | SF-295 CNS | SF-539 CNS | SK-MEL-2 melanoma | SK-MEL-28 melanoma | SK-MEL-5 melanoma | SK-OV-3 ovarian | SN12C renal | SNB-19 CNS | SNB-75 CNS | SNB-78 CNS | SR leukemia | SW-620 colon | TK-10 renal | U251 CNS | UACC-257 melanoma | UACC-62 melanoma | UO-31 renal
